Patent US8034602B2 (priority 2006, dated 2011)

Tested on: mutant strain CJR0500
Assay: Flask fermentation with tryptophan added to fermentation medium
Assay type: cell-based, Corynebacterium glutamicum
Conditions: 50 mg/L tryptophan in fermentation medium, 30° C., 64 hrs, shaking

SMILES: N[C@@H](Cc1c[nH]c2ccccc12)C(=O)O [Tryptophan, L-tryptophan]
- Effect of tryptophan addition on growth: stimulate the growth
